Test results: patent US20240141294A1, “CGMP COMPLIANT PRODUCTION AND EXPANSION OF PLASMACYTOID DENDRITIC CELLS FROM HEMATOPOIETIC STEM AND PROGENITOR CELLS” (AARHUS UNIVERSITET, priority 2021, published 2024)

Test system: HSPC-pDCs
Assay: RNA-sequencing of HSPC-pDCs generated with or without ascorbic acid
Type: cell-based, human
Details: for Log2 (+AA/−AA) / +AA FPKM: Table 2
Protocol: HSPCs were thawed and 1×10^5 cells were seeded in DC medium with or without supplementation of ascorbic acid (AA). Following 16 days of differentiation with or without AA in the medium, pDCs were isolated by immunomagnetic depletion of non-pDCs, and HSPCs-pDCs were then primed for 72 hours with IFN-β/γ. Following priming, HSPC-pDCs were stored in RNAprotect Cell Reagent (Qiagen) at −80° C. until total RNA was extracted using the RNeasy Plus Micro Kit (Qiagen), which efficiently eliminates genomic DNA without the need for DNase treatment. The total RNA was send to BGI Europe for RNA-seq. Here, a non-stranded & polyA-selected mRNA library was prepared from the total RNA and subjected to PE100 sequencing using the BGISEQ platform. The samples generated on average about 4.84 Gb bases per sample. Low quality reads were filtered and the remaining reads were mapped to the genome with an average mapping ratio with the reference genome at 92.74%, the average gene mapping ratio at 79.90%. In total, 18,412 genes were identified. Gene expression was calculated based on the reads, differentially expressed genes and gene ontology analyses were analyzed on BGI's software analysis platform Dr. Tom. HSPCs were thawed and 1×10^5 cells were seeded in DC medium with or without supplementation of ascorbic acid (AA). Following 16 days of differentiation with or without AA in the medium, pDCs were isolated by immunomagnetic depletion of non-pDCs, and HSPCs-pDCs were then primed for 72 hours with IFN-β/γ. Following priming, HSPC-pDCs were stored in RNAprotect Cell Reagent (Qiagen) at −80 degrees until total RNA was extracted using the RNeasy Plus Micro Kit (Qiagen), which efficiently eliminates genomic DNA without the need for DNase treatment. The total RNA was send to BGI Europe for RNA-seq. Here, a non-stranded & polyA-selected mRNA library was prepared from the total RNA and subjected to PE100 sequencing using the BGISEQ platform. The samples generated on average about 4.84 Gb bases per sample. Low quality reads were filtered and the remaining reads were mapped to the genome with an average mapping ratio with the reference genome at 92.74%, the average gene mapping ratio at 79.90%. In total, 18,412 genes were identified. Gene expression was calculated based on the reads, differentially expressed genes and gene ontology analyses were analyzed on BGI's software analysis platform Dr. Tom.

SMILES: O=C1O[C@H]([C@@H](O)CO)C(O)=C1O [ascorbic acid]
- Log2 (+AA/−AA) (gene ACP5, Qvalue 4.83E−10): 2.221
- +AA FPKM (gene ACP5, −AA FPKM 31.073): 146.980 FPKM
- Log2 (+AA/−AA) (gene ADAMDEC1, Qvalue 0.0010135): 3.569
- +AA FPKM (gene ADAMDEC1, −AA FPKM 1.127): 13.453 FPKM
- Log2 (+AA/−AA) (gene ASS1, Qvalue 2.41E−08): 5.358
- +AA FPKM (gene ASS1, −AA FPKM 0.477): 19.263 FPKM
- Log2 (+AA/−AA) (gene ATF5, Qvalue 2.01E−54): 2.398
- +AA FPKM (gene ATF5, −AA FPKM 24.183): 129.867 FPKM
- Log2 (+AA/−AA) (gene AXL, Qvalue 9.98E−29): 4.406
- +AA FPKM (gene AXL, −AA FPKM 1.033): 21.903 FPKM
- Log2 (+AA/−AA) (gene C3, Qvalue 0.001547846): 3.579
- +AA FPKM (gene C3, −AA FPKM 1.227): 14.750 FPKM
- Log2 (+AA/−AA) (gene CCL2, Qvalue 5.74E−06): 4.646
- +AA FPKM (gene CCL2, −AA FPKM 7.183): 179.503 FPKM
- Log2 (+AA/−AA) (gene CCL13, Qvalue 8.06E−14): 6.195
- +AA FPKM (gene CCL13, −AA FPKM 0.197): 14.483 FPKM
- Log2 (+AA/−AA) (gene CD14, Qvalue 2.98E−25): 4.038
- +AA FPKM (gene CD14, −AA FPKM 2.797): 46.303 FPKM
- Log2 (+AA/−AA) (gene CD209, Qvalue 9.84E−27): 2.774
- +AA FPKM (gene CD209, −AA FPKM 2.460): 16.407 FPKM
- Log2 (+AA/−AA) (gene CES1, Qvalue 0.03002647): 3.002
- +AA FPKM (gene CES1, −AA FPKM 6.620): 52.940 FPKM
- Log2 (+AA/−AA) (gene CFB, Qvalue 2.09E−06): 3.059
- +AA FPKM (gene CFB, −AA FPKM 1.257): 10.533 FPKM
- Log2 (+AA/−AA) (gene CHI3L1, Qvalue 0.024834793): 2.178
- +AA FPKM (gene CHI3L1, −AA FPKM 108.107): 495.927 FPKM
- Log2 (+AA/−AA) (gene CTSL, Qvalue 0.031636618): 2.759
- +AA FPKM (gene CTSL, −AA FPKM 3.140): 21.410 FPKM
- Log2 (+AA/−AA) (gene CXCL10, Qvalue 1.78E−06): 2.352
- +AA FPKM (gene CXCL10, −AA FPKM 36.100): 183.493 FPKM
- Log2 (+AA/−AA) (gene DEFA1, Qvalue 6.38E−05): 5.728
- +AA FPKM (gene DEFA1, −AA FPKM 19.907): 1047.070 FPKM
- Log2 (+AA/−AA) (gene DEFA3, Qvalue 0.001704486): 4.431
- +AA FPKM (gene DEFA3, −AA FPKM 27.457): 593.480 FPKM
- Log2 (+AA/−AA) (gene DEFA4, Qvalue 1.65E−08): 4.651
- +AA FPKM (gene DEFA4, −AA FPKM 39.303): 975.213 FPKM
- Log2 (+AA/−AA) (gene DNASE1L3, Qvalue 5.63E−10): 2.459
- +AA FPKM (gene DNASE1L3, −AA FPKM 1.893): 10.470 FPKM
- Log2 (+AA/−AA) (gene FPR3, Qvalue 3.93E−08): 2.200
- +AA FPKM (gene FPR3, −AA FPKM 10.853): 50.280 FPKM
- Log2 (+AA/−AA) (gene GIMAP4, Qvalue 3.03E−09): 2.409
- +AA FPKM (gene GIMAP4, −AA FPKM 3.960): 20.933 FPKM
- Log2 (+AA/−AA) (gene GPNMB, Qvalue 4.79E−08): 4.418
- +AA FPKM (gene GPNMB, −AA FPKM 4.760): 101.280 FPKM
- Log2 (+AA/−AA) (gene GZMB, Qvalue 3.57E−07): 3.081
- +AA FPKM (gene GZMB, −AA FPKM 3.773): 31.393 FPKM
- Log2 (+AA/−AA) (gene HSD11B1, Qvalue 0.044667374): 3.736
- +AA FPKM (gene HSD11B1, −AA FPKM 1.240): 16.590 FPKM
- Log2 (+AA/−AA) (gene IFI27, Qvalue 3.56E−04): 4.638
- +AA FPKM (gene IFI27, −AA FPKM 14.857): 376.697 FPKM
- Log2 (+AA/−AA) (gene IFI44L, Qvalue 1.82E−05): 2.109
- +AA FPKM (gene IFI44L, −AA FPKM 17.913): 81.280 FPKM
- Log2 (+AA/−AA) (gene IL4I1, Qvalue 5.63E−07): 2.589
- +AA FPKM (gene IL4I1, −AA FPKM 4.657): 28.410 FPKM
- Log2 (+AA/−AA) (gene IL32, Qvalue 2.92E−23): 2.353
- +AA FPKM (gene IL32, −AA FPKM 5.960): 30.560 FPKM
- Log2 (+AA/−AA) (gene KYNU, Qvalue 2.56E−05): 2.148
- +AA FPKM (gene KYNU, −AA FPKM 6.050): 26.750 FPKM
- Log2 (+AA/−AA) (gene LAG3, Qvalue 8.08E−20): 3.418
- +AA FPKM (gene LAG3, −AA FPKM 2.770): 29.953 FPKM
- Log2 (+AA/−AA) (gene LCN2, Qvalue 1.39E−54): 5.282
- +AA FPKM (gene LCN2, −AA FPKM 0.930): 35.670 FPKM
- Log2 (+AA/−AA) (gene LILRB4, Qvalue 3.21E−22): 3.922
- +AA FPKM (gene LILRB4, −AA FPKM 1.363): 19.833 FPKM
- Log2 (+AA/−AA) (gene MAFB, Qvalue 0.00100367): 3.471
- +AA FPKM (gene MAFB, −AA FPKM 1.023): 11.443 FPKM
- Log2 (+AA/−AA) (gene MMP14, Qvalue 1.27E−18): 4.564
- +AA FPKM (gene MMP14, −AA FPKM 1.470): 34.870 FPKM
- Log2 (+AA/−AA) (gene MPEG1, Qvalue 3.81E−23): 2.325
- +AA FPKM (gene MPEG1, −AA FPKM 22.783): 112.763 FPKM
- Log2 (+AA/−AA) (gene MX1, Qvalue 0.026353098): 2.341
- +AA FPKM (gene MX1, −AA FPKM 41.507): 211.673 FPKM
- Log2 (+AA/−AA) (gene MYL9, Qvalue 9.98E−29): 4.530
- +AA FPKM (gene MYL9, −AA FPKM 0.550): 12.580 FPKM
- Log2 (+AA/−AA) (gene NUPR1, Qvalue 8.23E−04): 3.257
- +AA FPKM (gene NUPR1, −AA FPKM 1.457): 14.303 FPKM
- Log2 (+AA/−AA) (gene OLR1, Qvalue 0.030792442): 2.719
- +AA FPKM (gene OLR1, −AA FPKM 1.523): 10.067 FPKM
- Log2 (+AA/−AA) (gene ORM1, Qvalue 1.09E−20): 4.863
- +AA FPKM (gene ORM1, −AA FPKM 3.003): 88.200 FPKM
- Log2 (+AA/−AA) (gene P2RY11, Qvalue 3.25E−10): 3.498
- +AA FPKM (gene P2RY11, −AA FPKM 0.970): 10.823 FPKM
- Log2 (+AA/−AA) (gene PLA2G7, Qvalue 0.030445407): 2.759
- +AA FPKM (gene PLA2G7, −AA FPKM 12.103): 86.573 FPKM
- Log2 (+AA/−AA) (gene SIGLEC1, Qvalue 0.003740839): 2.998
- +AA FPKM (gene SIGLEC1, −AA FPKM 3.223): 26.273 FPKM
- Log2 (+AA/−AA) (gene SLC7A7, Qvalue 6.15E−21): 2.460
- +AA FPKM (gene SLC7A7, −AA FPKM 9.010): 49.703 FPKM
- Log2 (+AA/−AA) (gene SLC15A3, Qvalue 4.84E−06): 2.417
- +AA FPKM (gene SLC15A3, −AA FPKM 9.753): 52.340 FPKM
- Log2 (+AA/−AA) (gene SPON2, Qvalue 6.39E−10): 2.497
- +AA FPKM (gene SPON2, −AA FPKM 4.037): 22.397 FPKM
- Log2 (+AA/−AA) (gene ST14, Qvalue 1.06E−29): 2.575
- +AA FPKM (gene ST14, −AA FPKM 1.920): 11.390 FPKM
- Log2 (+AA/−AA) (gene TLR7, Qvalue 1.13E−20): 2.326
- +AA FPKM (gene TLR7, −AA FPKM 2.483): 12.300 FPKM
- Log2 (+AA/−AA) (gene USP18, Qvalue 0.029120385): 3.335
- +AA FPKM (gene USP18, −AA FPKM 2.210): 22.600 FPKM
- Log2 (+AA/−AA) (gene XCR1, Qvalue 2.80E−29): 2.881
- +AA FPKM (gene XCR1, −AA FPKM 1.363): 10.463 FPKM
- log2 (+AA/−AA) (Table 3, gene FCER1G, Qvalue 0.03): 0.509
